Series [1] deals with HBV. As to the kind of experiment: Anti-HBV activity in vitro in HepG2.2.15 cells (extracellular HBV DNA by qPCR). Format: cell-based, Hepatitis B virus. Particulars: Hepatitis B virus. An outline of the steps: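 Supernatant HBV DNA was measured by qPCR after viral DNA extraction. Samples came from 5-day cultures of HepG2.2.15 cells, an HBV-genome-transfected HepG2 line, exposed to half-log compound dilutions in medium containing 0.5% DMSO.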

The nature of series [2]: Cytotoxicity (CC50) in HepDE19 cells, CCK-8 cell viability. Format: cell-based. To be noted: human, HepDE19 cells; read-out: CC50. The source says: HepG2.2.15 and HepDE19 are stably-transfected cell lines containing the HBV genome. Both cell lines are derived from the hepatoblastoma cell line Hep G2 (American Type Culture Collection, ATCC® HB-8065™) by the published procedures described in references: MA Selles et al. Proc. Natl. Acad. Sci. USA 1987, 84, 1005-1009 and H Guo et al. Journal of Virology 2007, 81, 12472-12484, respectively. Both cell lines were maintained in Dulbecco's modified Eagle's medium (DMEM)-F12 medium supplemented with 10% fetal bovine serum, 100 U/mL penicillin, 100 μg/mL streptomycin, and 0.5 mg/mL of G418.
Five days after treatment, cell viability was measured by addition of 20 μL of CCK-8 reagent. Two hours after incubation at 37° C., the absorbance at wavelengths of 450 nm and 630 nm (OD450 and OD630) was recorded by a plate reader.

Series [3] relates to HBV. As to the kind of experiment: Selectivity index (CC50 value/EC50 value). Format: cell-based, Hepatitis B virus. The source says:
Based on FDA guidance, in order to support clinical testing in humans, the assessment of acceptable risk-benefit has to be achieved by providing clear evidence of in vitro antiviral activity (EC50) and cytotoxicity (CC50). It is important to establish that an investigational product has antiviral activity at concentrations that can be achieved in vivo without inducing toxic effects to cells. Furthermore, in a cell culture model, apparent antiviral activity of an investigational product can be the result of host cell death after exposure to the product. The relative effectiveness of the compound in inhibiting viral replication compared to inducing cell death is defined as the selectivity index (CC50 value/EC50 value). It is desirable to have a high selectivity index giving maximum antiviral activity with minimal cell toxicity.
The relative effectiveness of the compound in inhibiting viral replication compared to inducing cell death is defined as the selectivity index (CC50 value/EC50 value). It is desirable to have a high selectivity index giving maximum antiviral activity with minimal cell toxicity.

Series [4] in a line: Metabolic stability study in human microsome. Format: in vitro ADME. The method in brief:
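Depletion of 1 μM compound followed by LC-MS/MS over 0–30 min (0, 3, 6, 9, 15, 30 min) after methanol quench. Incubations at 37 °C, pH 7.4 phosphate buffer, 0.5 mg/mL microsomal protein, with NADPH (1 mM) or a regenerating system as cofactor; controls lacked cofactor.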

A short description of series [5]: Lyophilisation solubility assay (Lysa). To be noted: phosphate buffer, pH 6.5, aqueous buffer, thermodynamic from solid. Format: physicochemical. The method in brief: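 Solubility in μg/mL is read by UV or HPLC-UV on filtrate, neat and diluted 1/10. Before filtration, the residue from evaporated 10 mM DMSO stock was taken up in pH 6.5 0.05 M phosphate buffer, then stirred 1 h, shaken 2 h and stood overnight, in duplicate.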

Setting [6] is: HepG2.2.15 cells, in-house data, read-out: EC50.

By EC50 is commonly meant the concentration giving half of the maximal effect. As a reminder, the CC50 is the concentration that lowers cell viability or growth by half. Usually solubility (thermodynamic) stands for solubility found after equilibrating the solid with the medium.

Values after ≈ are worked out from the molar mass of the structure shown. Like-named read-outs stand apart in the source and are kept apart here.

On to `CCOC(=O)C1=C(CN2CC(F)(F)C[C@H]2C(=O)O)NC(c2nccs2)=N[C@H]1c1ccc(F)cc1F` [Example 59, (R)-6-((S)-2-Carboxy-4,4-difluoro-pyrrolidin-1-ylmethyl)-4-(2,4-difluoro-phenyl)-2-thiazol-2-yl-1,4-dihydro-pyrimidine-5-carboxylic acid ethyl ester], for which the EC50 in the series on HBV [1] (setting [6]) was 13 nM. Further, in series [2], the half-maximal cytotoxic concentration (CC50) at 5 days is 52 µM. In addition, the “Selectivity index (CC50/EC50)” value in the series on HBV [3] is recorded as 3935. Besides, the “Human Hepatic Clearance” value in series [4] was found to be 3.5 mL/min/kg. In series [5], this compound registered a thermodynamic solubility greater than 630 µg/mL.
Regarding `CCOC(=O)C1=C(CN2CCOC[C@H]2C(=O)O)NC(c2nccs2)=N[C@H]1c1cccc(F)c1F` [Example 70, (S)-4-[(R)-6-(2,3-Difluoro-phenyl)-5-ethoxycarbonyl-2-thiazol-2-yl-3,6-dihydro-pyrimidin-4-ylmethyl]-morpholine-3-carboxylic acid], the EC50 in the series on HBV [1] (setting [6]) stood at 8.9 nM. Moreover, in series [2], the CC50 at 5 days is greater than 100 µM. Besides, the “Selectivity index (CC50/EC50)” value in the series with HBV [3] is reported as greater than 11236. The “Human Hepatic Clearance” value in series [4] came out at 2.22 mL/min/kg. In series [5], this compound showed a thermodynamic solubility greater than 611 µg/mL.
On the same counts, the results for `CCOC(=O)C1=C(CN2CC(F)(F)C[C@H]2C(=O)O)NC(c2nccs2)=N[C@H]1c1ccc(F)c(F)c1` [Example 41, (S)-6-((S)-2-Carboxy-4,4-difluoro-pyrrolidin-1-ylmethyl)-4-(3,4-difluoro-phenyl)-2-thiazol-2-yl-1,4-dihydro-pyrimidine-5-carboxylic acid ethyl ester] are 17 nM, 40 µM, 2372, 6.83 mL/min/kg and greater than 630 µg/mL.
The corresponding values for `CCOC(=O)C1=C(CN2CCOC[C@H]2C(=O)O)NC(c2nccs2)=N[C@H]1c1cc(F)c(F)c(F)c1` [Example 43, (S)-4-[(S)-5-Ethoxycarbonyl-2-thiazol-2-yl-6-(3,4,5-trifluoro-phenyl)-3,6-dihydro-pyrimidin-4-ylmethyl]-morpholine-3-carboxylic acid] are 18 nM, greater than 100 µM, greater than 5556, 1.2 mL/min/kg and greater than 606 µg/mL.
With `COC(=O)C1=C(CN2CCO[C@H](C)[C@H]2C(=O)O)NC(c2nccs2)=N[C@H]1c1ccc(F)cc1Br` [Example 106, (2R,3S)-4-[(R)-6-(2-Bromo-4-fluoro-phenyl)-5-methoxycarbonyl-2-thiazol-2-yl-3,6-dihydro-pyrimidin-4-ylmethyl]-2-methyl-morpholine-3-carboxylic acid], the EC50 in the series on HBV [1] (setting [6]) was 2.1 nM. Besides, the half-maximal cytotoxic concentration (CC50) at 5 days in series [2] is greater than 100 µM. Also, in the series on HBV [3], the “Selectivity index (CC50/EC50)” value is on record as greater than 47619. In addition, in series [4], the “Human Hepatic Clearance” value was found to be 6.32 mL/min/kg. In addition, in series [5], the thermodynamic solubility is greater than 730 µg/mL.
On the same counts, the results for `CCOC(=O)C1=C(CN2CC(F)(F)CC[C@@H]2C(=O)O)NC(c2nccs2)=N[C@H]1c1ccc(F)cc1Br` [Example 108, (R)-4-(2-Bromo-4-fluoro-phenyl)-6-((R)-2-carboxy-5,5-difluoro-piperidin-1-ylmethyl)-2-thiazol-2-yl-1,4-dihydro-pyrimidine-5-carboxylic acid ethyl ester] are 18 nM, 33 µM, 1784, 4.88 mL/min/kg and 410 µg/mL (≈ 698 µM).
As for `COC(=O)C1=C(CN2CCOC[C@H]2C(=O)O)NC(c2ncc(F)cc2F)=N[C@H]1c1ccc(F)cc1Cl` [Example 6, (S)-4-[(R)-6-(2-Chloro-4-fluoro-phenyl)-2-(3,5-difluoro-pyridin-2-yl)-5-methoxycarbonyl-3,6-dihydro-pyrimidin-4-ylmethyl]-morpholine-3-carboxylic acid], in the series with HBV [1] (setting [6]), the concentration giving a half-maximal response (EC50) came to 7.5 nM. For the same compound, the cytotoxic concentration (CC50) at 5 days in series [2] amounted to 27 µM. For the same compound, the “Selectivity index (CC50/EC50)” value in the series with HBV [3] is 3600. Further, the “Human Hepatic Clearance” value in series [4] was 6.28 mL/min/kg. This compound also had a thermodynamic solubility in series [5] greater than 100 µg/mL.
`CCOC(=O)C1=C(CN2CC(F)(F)C[C@H]2C(=O)O)NC(c2nccs2)=N[C@H]1c1cccc(F)c1Cl` [Example 64, (R)-6-((S)-2-Carboxy-4,4-difluoro-pyrrolidin-1-ylmethyl)-4-(2-chloro-3-fluoro-phenyl)-2-thiazol-2-yl-1,4-dihydro-pyrimidine-5-carboxylic acid ethyl ester]: in the series with HBV [1] (setting [6]), the EC50 was 3 nM. Moreover, the CC50 at 5 days in series [2] was 47 µM. Besides, the “Selectivity index (CC50/EC50)” value in the series with HBV [3] is listed as 15667. Further, the “Human Hepatic Clearance” value in series [4] is listed as 0 mL/min/kg. Also, in series [5], the thermodynamic solubility was greater than 620 µg/mL.
`COC(=O)C1=C(CN2CCOC[C@H]2C(=O)O)NC(c2nccs2)=N[C@H]1c1ccc(Cl)c(F)c1` [Example 77, (S)-4-[(S)-6-(4-Chloro-3-fluoro-phenyl)-5-methoxycarbonyl-2-thiazol-2-yl-3,6-dihydro-pyrimidin-4-ylmethyl]-morpholine-3-carboxylic acid] had an EC50 with HBV [1] (HepG2.2.15) of 7 nM. Besides, in series [2], the CC50 at 5 days was greater than 100 µM. For the same compound, in the series with HBV [3], the “Selectivity index (CC50/EC50)” value is listed as 14286. Also, the “Human Hepatic Clearance” value in series [4] amounted to 1.43 mL/min/kg. The same compound gave a solubility (thermodynamic) in series [5] greater than 631 µg/mL.
For the compound `COC(=O)C1=C(CN2CC(F)(F)C[C@H]2C(=O)O)NC(c2nc(C3CC3)cs2)=N[C@H]1c1ccc(F)cc1Cl` [Example 10, (R)-6-((S)-2-Carboxy-4,4-difluoro-pyrrolidin-1-ylmethyl)-4-(2-chloro-4-fluoro-phenyl)-2-(4-cyclopropyl-thiazol-2-yl)-1,4-dihydro-pyrimidine-5-carboxylic acid methyl ester], the half-maximal effective concentration (EC50) in the series with HBV [1] (setting [6]) was 7.3 nM. The CC50 at 5 days in series [2] was 39 µM. In addition, in the series on HBV [3], the “Selectivity index (CC50/EC50)” value came to 5342. In addition, the “Human Hepatic Clearance” value in series [4] is 8.76 mL/min/kg. In series [5], this compound displayed a solubility (thermodynamic) of 246 µg/mL (≈ 443 µM).
The corresponding values for `CCOC(=O)C1=C(CN2CC(F)(F)C[C@H]2C(=O)O)NC(c2nccn2C)=N[C@H]1c1ccc(F)cc1Cl` [Example 36, (R)-6-((S)-2-Carboxy-4,4-difluoro-pyrrolidin-1-ylmethyl)-4-(2-chloro-4-fluoro-phenyl)-2-(1-methyl-1H-imidazol-2-yl)-1,4-dihydro-pyrimidine-5-carboxylic acid ethyl ester] are 18 nM, 23 µM, 1251, 6.22 mL/min/kg and greater than 637 µg/mL.
Turning to `CCOC(=O)C1=C(CN2CC(F)(F)C[C@H]2C(=O)O)NC(c2nccs2)=N[C@H]1c1ccc(Cl)cc1Cl` [Example 38, (R)-6-((S)-2-Carboxy-4,4-difluoro-pyrrolidin-1-ylmethyl)-4-(2,4-dichloro-phenyl)-2-thiazol-2-yl-1,4-dihydro-pyrimidine-5-carboxylic acid ethyl ester], the EC50 with HBV [1] (setting [6]) was 3.3 nM. Besides, the CC50 at 5 days in series [2] is 21 µM. Also, the “Selectivity index (CC50/EC50)” value with HBV [3] came out at 6315. In series [4], the “Human Hepatic Clearance” value was 9.3 mL/min/kg. For the same compound, the solubility (thermodynamic) in series [5] was found to be 291 µg/mL (≈ 534 µM).
On the same counts, the results for `CCOC(=O)C1=C(CN2CCOC[C@H]2C(=O)O)NC(c2nccs2)=N[C@H]1c1cccc(F)c1` [Example 53, (S)-4-[(S)-5-Ethoxycarbonyl-6-(3-fluoro-phenyl)-2-thiazol-2-yl-3,6-dihydro-pyrimidin-4-ylmethyl]-morpholine-3-carboxylic acid] are 14 nM, 69 µM, 4769, 0 mL/min/kg and greater than 621 µg/mL.

(Values after patent publication US9447086B2, “6-amino acid heteroaryldihydropyrimidines for the treatment and prophylaxis of hepatitis B virus infection” (priority 2012, dated 2016).)
